Assay results from US20230382926A1, “COMPOUNDS AND USES THEREOF” (The University of The West Indies, priority 2022, published 2023).

Assays:
Experiment in all cases: Rescue concentration, modified checkerboard MIC adjuvant assay
Type in all cases: cell-based
[1] = system: Escherichia coli ATCC 35150; settings: E. coli ATCC 35150
Procedure: (§1) Reference microorganisms as well as clinical strains used to evaluate the antimicrobial adjuvant properties of SP-6azaBIM 125 and SP-6azaBIM 136 are listed in Table 3. Clinical strains of bacteria were kindly provided by the Faculty of Medical Sciences, UWI, St. Augustine, Trinidad. All bacterial cultures were cryopreserved in 30% glycerol/Brain Heart Infusion (BHI) at −80° C. Cultures were revived on BHI agar (Oxoid Ltd, England) and maintained at 4° C. until needed.
(§2) Prior to each experiment, cultures were streaked onto clean BHI agar plates and incubated at 35° C. for 24 hours. Colonies of the respective cultures were selected and inoculated in phosphate buffer saline (pH 7.5) to a 0.5 McFarland turbidity standard (equivalent to 10^8 CFU mL^−1). For inhibitory studies the bacterial suspensions were diluted 1:100 in cation-adjusted Mueller Hinton Broth (ca-MHB) (Oxoid Ltd, England). Fastidious bacteria including Streptococcus pneumoniae, Haemophilus infuenzae and Clostridium difficile were maintained on BHI agar with 5% defibrinated sheep blood and diluted in ca-MHB with 5% defibrinated sheep blood.
(§3) Antibiotic powders used in this study were purchased from Sigma Aldrich Ltd. (WI, USA). Antibiotic stock solutions were made at 50 mg mL^−1 according to Andrews (2001) and working solutions were prepared 24 h before use and stored at 4° C.
(§4) HCl salts of the of the SP-azaBIM test compounds were prepared prior to testing and stored at 4° C. Working preparations of each compound were made to 1 mg/mL in sterile deionised water.
(§5) The antibiotic adjuvant activity of the SPazaBIMs were evaluated in combination with representative antibiotics (representing 13 antibiotic classes) against the 19 pathogens strains listed in Table 3. To assess the adjuvant properties of the SP-azaBIM molecules, a modified checkerboard minimum inhibitory concentration assay was used. A fixed concentration of the respective antibiotic (susceptible breakpoint concentration) was mixed with a twofold dilution series of the test SP-azaBIM (FIG. 1). This was to determine the concentration of SP-azaBIM needed potentiate the antibiotic at a clinically susceptible breakpoint concentration. Antibiotic susceptible breakpoint concentrations for the respective bacteria were determined using Clinical Laboratory Standards Institute (CLSI) criteria M100 ED31.
(§6) In this study, only those antibiotics to which the bacterial was classed as resistant were included in the adjuvant assays. In this assay we recorded the rescue concentration of the SP-BIM for a respective antibiotic. The rescue concentration was defined as the concentration of the adjuvant that reduces the minimum inhibitory concentration (MIC) of an antibiotic to the susceptibility breakpoint.
(§7) Immediately prior to testing, the respective antibiotic and SP-azaBIM was dissolved in sterile deionised water at 20× the required test concentration. Each microtiter well was then inoculated with 180 μl of bacterial inoculum of 10^6 CFU/ml in ca-MHB, and 10 μl each if the antibiotic and SP-azaBIM was added to the plates. These plates were then incubated at 35° C. for 24 h under aerobic conditions. A similar method was followed for the fastidious pathogens except that they were cultured in ca-MHB with 5% sheep blood and 5% CO2.
(§8) Bacterial growth was visually inspected after the incubation period and the rescue concentration of the test SP-azaBIM was determined as the lowest concentration of the compound needed to reduce bacterial growth by 99.99% at the susceptible breakpoint concentration of the antibiotic. For example, CLSI states that Pseudomonas aeruginosa is susceptible to the Imipenem if the MIC is ≤2 μg mL^−1. If the bacteria can tolerate this concentration in vitro, then the bacteria has an intermediate or absolute resistance toward that antibiotic. […]

[2] = system: Acinetobacter baumannii clinical isolate 9978; settings: A. baumannii clinical isolate 9978
Procedure: as §1, §2, §3, §4, §5, §6, §7, §8

[3] = system: Streptococcus pneumoniae ATCC 49619; settings: S. pneumoniae ATCC 49619
Procedure: as §1, §2, §3, §4, §5, §6, §7, §8

[4] = system: Klebsiella pneumoniae ATCC 49472; settings: K. pneumoniae ATCC 49472
Procedure: as §1, §2, §3, §4, §5, §6, §7, §8

[5] = system: Staphylococcus aureus ATCC BAA-2312; settings: S. aureus ATCC BAA-2312
Procedure: as §1, §2, §3, §4, §5, §6, §7, §8

[6] = system: Enterococcus faecalis ATCC 51299; settings: E. faecalis ATCC 51299
Procedure: as §1, §2, §3, §4, §5, §6, §7, §8

[7] = system: Klebsiella pneumoniae ATCC BAA-2814; settings: K. pneumoniae ATCC BAA-2814
Procedure: as §1, §2, §3, §4, §5, §6, §7, §8

[8] = system: Stenotrophomonas maltophilia MDR 7785; settings: S. maltophilia MDR 7785
Procedure: as §1, §2, §3, §4, §5, §6, §7, §8

[9] = Amp at susceptible breakpoint 8 μg mL^−1
[10] = Col at susceptible breakpoint 8 μg mL^−1
[11] = Dox at susceptible breakpoint 4 μg mL^−1
[12] = Gen at susceptible breakpoint 4 μg mL^−1
[13] = Imi at susceptible breakpoint 1 μg mL^−1
[14] = Amox at susceptible breakpoint 8 μg mL^−1
[15] = Cef at susceptible breakpoint 8 μg mL^−1
[16] = Imi at susceptible breakpoint 2 μg mL^−1
[17] = Mero at susceptible breakpoint 2 μg mL^−1
[18] = Tri at susceptible breakpoint 8 μg mL^−1
[19] = Chl at susceptible breakpoint 8 μg mL^−1
[20] = Ceph at susceptible breakpoint 8 μg mL^−1

**Q.** For `Brc1ccc(C(c2c[nH]c3ncccc23)c2c[nH]c3ncccc23)cc1` [SP-7azaBIM 126, 3,3′-((4-bromophenyl)methylene)bis(1H-pyrrolo[2,3-b]pyridine)], which “Rescue concentration, Amp (8)” value [1, 9] is on record?
**A.** The value was >128 µg/mL.

**Q.** What about the “Rescue concentration, Cip (0.25)” value ([1]; Cip at susceptible breakpoint 0.25 μg mL^−1) of the same compound?
**A.** Its value is >128 µg/mL.

**Q.** What about the “Rescue concentration, Col (8)” value [1, 10] of the same compound?
**A.** The value was >128 µg/mL.

**Q.** What about the “Rescue concentration, Dox (4)” value [1, 11] of the same compound?
**A.** Its value is >128 µg/mL.

**Q.** And the “Rescue concentration, Gen (4)” value [1, 12]?
**A.** Its value is >128 µg/mL.

**Q.** And the “Rescue concentration, Imi (1)” value [1, 13]?
**A.** The value was >128 µg/mL.

**Q.** And the “Rescue concentration, Amox (8)” value [2, 14]?
**A.** The value was >128 µg/mL.

**Q.** And the “Rescue concentration, Cef (8)” value [2, 15]?
**A.** Its value is >128 µg/mL.

**Q.** What about the “Rescue concentration, Col (2)” value ([2]; Col at susceptible breakpoint 2 μg mL^−1) of the same compound?
**A.** Its value is >128 µg/mL.

**Q.** And the “Rescue concentration, Gen (4)” value [2, 12]?
**A.** Its value is >128 µg/mL.

**Q.** What about the “Rescue concentration, Imi (2)” value [2, 16] of the same compound?
**A.** The value was >128 µg/mL.

**Q.** What about the “Rescue concentration, Mero (2)” value [2, 17] of the same compound?
**A.** The value was >128 µg/mL.

**Q.** And the “Rescue concentration, Pol B (2)” value ([2]; Pol B at susceptible breakpoint 2 μg mL^−1)?
**A.** The value was >128 µg/mL.

**Q.** And the “Rescue concentration, Amox (2)” value ([3]; Amox at susceptible breakpoint 2 μg mL^−1)?
**A.** The value was >128 µg/mL.

**Q.** What about the “Rescue concentration, Ery (0.25)” value ([3]; Ery at susceptible breakpoint 0.25 μg mL^−1) of the same compound?
**A.** Its value is >128 µg/mL.

**Q.** And the “Rescue concentration, Imi (0.12)” value ([3]; Imi at susceptible breakpoint 0.12 μg mL^−1)?
**A.** The value was >128 µg/mL.

**Q.** And the “Rescue concentration, Amox (8)” value [4, 14]?
**A.** Its value is >128 µg/mL.

**Q.** And the “Rescue concentration, Amp (8)” value [4, 9]?
**A.** Its value is >128 µg/mL.

**Q.** And the “Rescue concentration, Col (8)” value [4, 10]?
**A.** The value was >128 µg/mL.

**Q.** What about the “Rescue concentration, Imi (1)” value [4, 13] of the same compound?
**A.** Its value is >128 µg/mL.

**Q.** And the “Rescue concentration, Mero (1)” value ([4]; Mero at susceptible breakpoint 1 μg mL^−1)?
**A.** The value was >128 µg/mL.

**Q.** And the “Rescue concentration, Pol B (8)” value ([4]; Pol B at susceptible breakpoint 8 μg mL^−1)?
**A.** Its value is >128 µg/mL.

**Q.** What about the “Rescue concentration, Azi (2)” value ([5]; Azi at susceptible breakpoint 2 μg mL^−1) of the same compound?
**A.** Its value is >128 µg/mL.

**Q.** What about the “Rescue concentration, Gen (4)” value [5, 12] of the same compound?
**A.** The value was >128 µg/mL.

**Q.** And the “Rescue concentration, Pen (0.12)” value ([5]; Pen at susceptible breakpoint 0.12 μg mL^−1)?
**A.** Its value is >128 µg/mL.

**Q.** What about the “Rescue concentration, Tri (8)” value [5, 18] of the same compound?
**A.** The value was >128 µg/mL.

**Q.** What about the “Rescue concentration, Van (2)” value ([5]; Van at susceptible breakpoint 2 μg mL^−1) of the same compound?
**A.** The value was >128 µg/mL.

**Q.** And the “Rescue concentration, Amp (8)” value [6, 9]?
**A.** The value was 32 µg/mL.

**Q.** And the “Rescue concentration, Chl (8)” value [6, 19]?
**A.** Its value is >128 µg/mL.

**Q.** And the “Rescue concentration, Dox (4)” value [6, 11]?
**A.** Its value is >128 µg/mL.

**Q.** And the “Rescue concentration, Ery (0.5)” value ([6]; Ery at susceptible breakpoint 0.5 μg mL^−1)?
**A.** Its value is >128 µg/mL.

**Q.** And the “Rescue concentration, Tri (8)” value [6, 18]?
**A.** The value was >128 µg/mL.

**Q.** What about the “Rescue concentration, Van (4)” value ([6]; Van at susceptible breakpoint 4 μg mL^−1) of the same compound?
**A.** The value was 64 µg/mL.

**Q.** And the “Rescue concentration, Amox (8)” value [7, 14]?
**A.** Its value is >128 µg/mL.

**Q.** And the “Rescue concentration, Amp (8)” value [7, 9]?
**A.** The value was >128 µg/mL.

**Q.** What about the “Rescue concentration, Aze (4)” value ([7]; Aze at susceptible breakpoint 4 μg mL^−1) of the same compound?
**A.** The value was >128 µg/mL.

**Q.** What about the “Rescue concentration, Azi (16)” value ([7]; Azi at susceptible breakpoint 16 μg mL^−1) of the same compound?
**A.** The value was >128 µg/mL.

**Q.** And the “Rescue concentration, Cef (16)” value ([7]; Cef at susceptible breakpoint 16 μg mL^−1)?
**A.** Its value is >128 µg/mL.

**Q.** What about the “Rescue concentration, Ceph (8)” value [7, 20] of the same compound?
**A.** Its value is >128 µg/mL.

**Q.** And the “Rescue concentration, Chl (8)” value [7, 19]?
**A.** The value was >128 µg/mL.

**Q.** What about the “Rescue concentration, Col (8)” value [7, 10] of the same compound?
**A.** The value was >128 µg/mL.

**Q.** What about the “Rescue concentration, Dox (4)” value [7, 11] of the same compound?
**A.** Its value is >128 µg/mL.

**Q.** What about the “Rescue concentration, Gen (4)” value [7, 12] of the same compound?
**A.** Its value is >128 µg/mL.

**Q.** What about the “Rescue concentration, Imi (1)” value [7, 13] of the same compound?
**A.** The value was >128 µg/mL.

**Q.** What about the “Rescue concentration, Tet (4)” value ([7]; Tet at susceptible breakpoint 4 μg mL^−1) of the same compound?
**A.** Its value is >128 µg/mL.

**Q.** What about the “Rescue concentration, Cef (8)” value [8, 15] of the same compound?
**A.** The value was >128 µg/mL.

**Q.** What about the “Rescue concentration, Ceph (8)” value [8, 20] of the same compound?
**A.** The value was >128 µg/mL.

**Q.** What about the “Rescue concentration, Chl (8)” value [8, 19] of the same compound?
**A.** The value was >128 µg/mL.

**Q.** What about the “Rescue concentration, Cip (2)” value ([8]; Cip at susceptible breakpoint 2 μg mL^−1) of the same compound?
**A.** The value was >128 µg/mL.

**Q.** What about the “Rescue concentration, Gen (4)” value [8, 12] of the same compound?
**A.** The value was >128 µg/mL.

**Q.** What about the “Rescue concentration, Imi (2)” value [8, 16] of the same compound?
**A.** Its value is 16 µg/mL.

**Q.** What about the “Rescue concentration, Mero (2)” value [8, 17] of the same compound?
**A.** The value was 32 µg/mL.

**Q.** What about the “Rescue concentration, Tri (2)” value ([8]; Tri at susceptible breakpoint 2 μg mL^−1) of the same compound?
**A.** The value was >128 µg/mL.
